Literature values, collected in patent US20240050950A1, “GRADIENT-BASED MICROFLUIDIC CIRCUIT, DEVICE, AND METHOD FOR PERFORMING AN ASSAY” (priority 2020, published 2024).
Structures can show the parent of a compound that is named as a salt.

Settings: Table 1, antimicrobial agents/drugs; cited from earlier work

Row | Structure (SMILES) | Molar volume
1 | CC[C@@H](CO)NCCN[C@@H](CC)CO [Ethambutol ((+)-S,S-Ethambutol), Ethambutol] | 207.0 ± 3.0 cm^3
2 | COc1cc([C@@H]2c3cc4c(cc3[C@@H](O[C@@H]3O[C@@H]5CO[C@@H](C)O[C@H]5[C@H](O)[C@H]3O)[C@H]3COC(=O)[C@H]23)OCO4)cc(OC)c1O [Etoposide] | 378.5 ± 5.0 cm^3
3 | CS(=O)(=O)c1ccc([C@@H](O)[C@@H](CF)NC(=O)C(Cl)Cl)cc1 [Florfenicol (Aquafen, Nuflor), Florfenicol] | 246.7 ± 3.0 cm^3
4 | COC(=O)Nc1nc2cc(C(=O)c3ccc(F)cc3)ccc2[nH]1 [Flubendazol (Flumoxanal), Flubendazol] | 216.8 ± 3.0 cm^3
5 | OC(Cn1cncn1)(Cn1cncn1)c1ccc(F)cc1F [Fluconazole] | 205.2 ± 7.0 cm^3
6 | CC(C(=O)O)c1ccc(-c2ccccc2)c(F)c1 (centres unmarked) [Flurbiprofen] | 203.6 ± 3.0 cm^3
7 | Nc1ncnc2c([C@@H]3O[C@H](CO)[C@@H](O)[C@H]3O)[nH]nc12 [Formycin A] | 128.1 ± 7.0 cm^3
8 | CO[C@@H]1[C@H](OC(=O)/C=C/C=C/C=C/C=C/C(=O)O)CC[C@]2(CO2)[C@H]1[C@@]1(C)O[C@@H]1CC=C(C)C [Fumagillin] | 383.2 ± 5.0 cm^3
9 | CCCCc1ccc(C(=O)O)nc1 [Fusaric acid (5-Butylpicolinic acid), 5-Butylpicolinic acid] | 161.0 ± 3.0 cm^3
10 | CN[C@@H]1[C@@H](O)[C@@H](O[C@@H]2[C@@H](O)[C@H](O[C@H]3O[C@H]([C@@H](C)O)[C@@H](O)[C@H](O)[C@H]3N)[C@@H](N)C[C@H]2N)OC[C@]1(C)O [G 418] | 336.3 ± 5.0 cm^3
11 | Nc1nc(O)c2ncn(COC(CO)CO)c2n1 [Ganciclovir] | 140.5 ± 7.0 cm^3
12 | COc1c(N2CCNC(C)C2)c(F)cc2c(=O)c(C(=O)O)cn(C3CC3)c12 (centres unmarked) [Gatifloxacin] | 270.7 ± 3.0 cm^3
13 | CN1C(=O)[C@]23CC4=CC=C[C@H](O)[C@H]4N2C(=O)[C@@]1(CO)SS3 [Gliotoxin] | 186.5 ± 5.0 cm^3
14 | COC1=CC(=O)C[C@@H](C)[C@]12Oc1c(Cl)c(OC)cc(OC)c1C2=O [Griseofulvin] | 255.1 ± 5.0 cm^3
15 | CO[C@H]1[C@@H](OC)C[C@H](C)[C@@H](OC)C2=CC(=O)C=C(NC(=O)/C(C)=C/C=C\[C@H](OC)[C@@H](OC(N)=O)/C(C)=C/[C@@H]1C)C2=O [Herbimycin A] | 479.9 ± 5.0 cm^3
16 | C=CCc1ccc(O)c(-c2ccc(O)c(CC=C)c2)c1 [Honokiol] | 240.4 ± 3.0 cm^3
17 | CN[C@H]1C[C@@H](N)[C@H](O)[C@@H](O[C@@H]2O[C@H](CO)[C@H](O)[C@@H]3OC4(O[C@H]23)O[C@H]([C@@H](N)CO)[C@H](O)[C@H](O)[C@H]4O)[C@@H]1O (some centres unmarked) [Hygromycin B (WK2130000), Hygromycin B] | 315.1 ± 5.0 cm^3
18 | C[C@H](CCC(=O)O)C[C@H](C)C[C@H](C)C(=O)/C=C(\O)[C@H](C)C[C@H](C)C/C=C/[C@@H](C)[C@@H](O)[C@@H](C)[C@@H](O)C[C@@H]1CC[C@@](C)([C@H]2CC[C@@](C)([C@@H](C)O)O2)O1 [Ionomycin] | 661.0 ± 3.0 cm^3
19 | Oc1cc(Cl)ccc1Oc1ccc(Cl)cc1Cl [Irgasan] | 194.3 ± 3.0 cm^3
20 | CO[C@@H]1[C@@H](O[C@@H]2O[C@H](C)[C@@H](O[C@H]3C[C@@](C)(O)[C@@H](OC(=O)CC(C)C)[C@H](C)O3)[C@H](N(C)C)[C@H]2O)[C@@H](CC=O)C[C@@H](C)[C@@H](O)/C=C/C=C/C[C@@H](C)OC(=O)C[C@H]1OC(C)=O [Josamycin] | 684.5 ± 5.0 cm^3
21 | COC(=O)[C@@]1(O)C[C@H]2O[C@]1(C)n1c3ccccc3c3c4c(c5c6ccccc6n2c5c31)C(=O)NC4 [K-252a] | 278.7 ± 7.0 cm^3
22 | CC(=O)N1CCN(c2ccc(OCC3COC(Cn4ccnc4)(c4ccc(Cl)cc4Cl)O3)cc2)CC1 (centres unmarked) [Ketoconazole] | 384.9 ± 7.0 cm^3
23 | C[C@H](N)C(=O)N[C@@H](C)P(=O)(O)O [L-Alanyl-L-1-aminoethylphosphonic acid] | 140.5 ± 3.0 cm^3

Same assay, conditions: Table 2, anticancer drugs; cited from earlier work

Row | Structure (SMILES) | Molar volume
24 | C=C1C[C@@H]2CC[C@@]34C[C@H]5O[C@H]6[C@@H](O3)[C@H]3O[C@H](CC[C@@H]3O[C@H]6[C@H]5O4)CC(=O)C[C@@H]3[C@@H](OC)[C@@H](C[C@H](O)CN)O[C@H]3C[C@H]3O[C@@H](CC[C@@H]1O2)C[C@@H](C)C3=C [Eribulin Mesylate] | 563.2 ± 5.0 cm^3
25 | C#Cc1cccc(Nc2ncnc3cc(OCCOC)c(OCCOC)cc23)c1 [Erlotinib Hydrochloride (Tarceva), Erlotinib Hydrochloride] | 315.4 ± 5.0 cm^3
26 | COc1cc([C@@H]2c3cc4c(cc3[C@@H](O[C@@H]3O[C@@H]5CO[C@@H](C)O[C@H]5[C@H](O)[C@H]3O)[C@H]3COC(=O)[C@H]23)OCO4)cc(OC)c1OP(=O)(O)O [Etopophos (Etoposide Phosphate), Etoposide Phosphate] | 406.7 ± 5.0 cm^3
27 | CN(C)CCOc1ccc(/C(=C(/CCCl)c2ccccc2)c2ccccc2)cc1 [Fareston (Toremifene), Toremifene] | 367.6 ± 3.0 cm^3
28 | C[C@]12CC[C@@H]3c4ccc(O)cc4C[C@@H](CCCCCCCCC[S+]([O-])CCCC(F)(F)C(F)(F)F)[C@H]3[C@@H]1CC[C@@H]2O (some centres unmarked) [Faslodex (Fulvestrant), Fulvestrant] | 505.1 ± 3.0 cm^3
29 | N#Cc1ccc(C(c2ccc(C#N)cc2)n2cncn2)cc1 [Femara (Letrozole), Letrozole] | 234.5 ± 7.0 cm^3
30 | C#CCC(Cc1cnc2nc(N)nc(N)c2n1)c1ccc(C(=O)N[C@@H](CCC(=O)O)C(=O)O)cc1 (some centres unmarked) [Folotyn (Pralatrexate), Pralatrexate] | 324.5 ± 3.0 cm^3
31 | Nc1nc(=O)c2c([nH]1)NCC(CNc1ccc(C(=O)N[C@@H](CCC(=O)[O-])C(=O)[O-])cc1)N2C=O.[Ca+2] (some centres unmarked) [Fusilev (Leucovorin Calcium), Leucovorin Calcium] | 280.7 ± 7.0 cm^3
32 | COc1cc2ncnc(Nc3ccc(F)c(Cl)c3)c2cc1OCCCN1CCOCC1 [Gefitinib] | 337.7 ± 3.0 cm^3
33 | Nc1ccn([C@@H]2O[C@H](CO)[C@@H](O)C2(F)F)c(=O)n1 [Gemcitabine Hydrochloride] | 142.3 ± 7.0 cm^3
34 | CN(C)C/C=C/C(=O)Nc1cc2c(Nc3ccc(F)c(Cl)c3)ncnc2cc1O[C@H]1CCOC1 [Gilotrif (Afatinib Dimaleate), Afatinib Dimaleate] | 351.9 ± 3.0 cm^3
35 | CC(C)C[C@H](NC(=O)[C@@H](COC(C)(C)C)NC(=O)[C@H](Cc1ccc(O)cc1)NC(=O)[C@H](CO)NC(=O)[C@H](Cc1c[nH]c2ccccc12)NC(=O)[C@H](Cc1cnc[nH]1)NC(=O)[C@@H]1CCC(=O)N1)C(=O)N[C@@H](CCCNC(=N)N)C(=O)N1CCC[C@H]1C(=O)NNC(N)=O [Goserelin Acetate (Zoladex), Goserelin Acetate] | 844.7 ± 7.0 cm^3
36 | CN1C2CCCC1CC(NC(=O)c1nn(C)c3ccccc13)C2 (centres unmarked) [Granisetron] | 234.8 ± 7.0 cm^3
37 | CC(C)NCC(O)COc1cccc2ccccc12 (centres unmarked) [Hemangeol (Propranolol Hydrochloride), Propranolol Hydrochloride] | 237.1 ± 3.0 cm^3
38 | CC[C@@]1(O)C(=O)OCc2c1cc1n(c2=O)Cc2cc3c(CN(C)C)c(O)ccc3nc2-1 [Hycamtin (Topotecan Hydrochloride), Topotecan Hydrochloride] | 281.3 ± 5.0 cm^3
39 | NC(=O)NO [Hydrea (Hydroxyurea), Hydroxyurea] | 52.1 ± 3.0 cm^3
40 | CC(=O)[C@]1(O)Cc2c(O)c3c(c(O)c2[C@@H](O[C@H]2C[C@H](N)[C@H](O)[C@H](C)O2)C1)C(=O)c1ccccc1C3=O [Idarubicin Hydrochloride] | 317.8 ± 5.0 cm^3
41 | CC[C@H](Nc1ncnc2[nH]cnc12)c1nc2cccc(F)c2c(=O)n1-c1ccccc1 [Idelalisib (Zydelig), Idelalisib] | 282.2 ± 7.0 cm^3
42 | O=P1(NCCCl)OCCCN1CCCl (centres unmarked) [Ifex (Ifosfamide), Ifosfamide] | 195.6 ± 5.0 cm^3
43 | N#Cc1ccnc(N2C(=O)CC[C@H]2C(=O)N(c2cncc(F)c2)[C@H](C(=O)NC2CC(F)(F)C2)c2ccccc2Cl)c1 [Ivosidenib (Tibsovo), Ivosidenib] | 383.5 ± 5.0 cm^3
44 | C/C(=C\c1csc(C)n1)[C@@H]1C[C@@H]2O[C@]2(C)CCC[C@H](C)[C@H](O)[C@@H](C)C(=O)C(C)(C)[C@@H](O)CC(=O)N1 [Ixabepilone] | 451.5 ± 3.0 cm^3
45 | CN(C)C(=O)c1cc2cnc(Nc3ccc(N4CCNCC4)cn3)nc2n1C1CCCC1 [Kisqali (Ribociclib), Ribociclib] | 635.1 ± 5.0 cm^3
46 | CC(C)[C@@H]1NC(=O)[C@H](CCCCN)NC(=O)[C@@H](Cc2c[nH]c3ccccc23)NC(=O)[C@H](Cc2ccc(O)cc2)NC(=O)[C@@H](NC(=O)[C@H](N)Cc2ccc3ccccc3c2)CSSC[C@@H](C(=O)N[C@H](C(N)=O)[C@@H](C)O)NC1=O [Lanreotide Acetate] | 781.0 ± 5.0 cm^3
47 | O=C(Nc1cnn2ccc(N3CCC[C@@H]3c3cc(F)ccc3F)nc12)N1CC[C@H](O)C1 [Larotrectinib Sulfate (Vitrakvi), Larotrectinib Sulfate] | 274.6 ± 7.0 cm^3
48 | Nc1cccc2c1CN(C1CCC(=O)NC1=O)C2=O (centres unmarked) [Lenalidomide] | 177.4 ± 3.0 cm^3

Same assay, conditions: Table 2, anticancer drugs; listed as Ribociclib; cited from earlier work

Row | Structure (SMILES) | Molar volume
49 | CN(C)C(=O)c1cc2cnc(Nc3ccc(N4CCNCC4)cn3)nc2n1C1CCCC1 [Kisqali (Ribociclib), Ribociclib] | 311.4 ± 7.0 cm^3

Same assay, conditions: Table 3, antifungal drugs and other molecules; cited from earlier work

Row | Structure (SMILES) | Molar volume
50 | Cc1ccc(C(=O)N2CCN(c3ccc([N+](=O)[O-])cc3)CC2)cc1Cl [Filastatin] | 269.8 ± 3.0 cm^3
51 | CCCCC[C@@H](O)[C@H]1C(=O)O[C@H](C)[C@@H](O)/C=C/C=C/C=C/C=C/C=C(\C)[C@@H](O)C[C@H](O)C[C@H](O)C[C@H](O)C[C@H](O)C[C@H](O)C[C@@H]1O [Filipin] | 563.7 ± 3.0 cm^3
52 | OC(Cn1cncn1)(Cn1cncn1)c1ccc(F)cc1F [Fluconazole] | 205.2 cm^3
53 | O=C[C@H](O)[C@@H](O)[C@@H](O)[C@H](O)CO [Galactose] | 104.0 cm^3
54 | CN(C)c1ccc(C(=C2C=CC(=[N+](C)C)C=C2)c2ccc(N(C)C)cc2)cc1 [Gentian Violet] | 340.9 ± 5.0 cm^3
55 | C[C@H]1O[C@H](O[C@H]2[C@H](O)[C@@H](O)[C@@H](O)[C@H](O)[C@@H]2O)[C@@H](N)C[C@@H]1NC(=N)C(=O)O [Kasugamycin] | 192.2 ± 7.0 cm^3
56 | CC(=O)N1CCN(c2ccc(OCC3COC(Cn4ccnc4)(c4ccc(Cl)cc4Cl)O3)cc2)CC1 (centres unmarked) [Ketoconazole] | 389.4 cm^3
